Data set [1] is described as follows: Plasmatic serotonin after treatment (ELISA). In kind it is in vivo, Sprague Dawley rats. The note with it: 90 min after oral 50 µg melatonin/kg.
Data set [2] can be described thus: Pharmacokinetic study of plasma melatonin after single oral dose of lentil sprouts extract.
Text: (§2) The area under the curve (AUC) is the integral of the plasma concentration of an altered drug against an interval of definite time. Pharmacokinetic parameters including plasma elimination rate constant (Ke), elimination half-life (t1/2), time to reach measured maximum plasma concentration (Tmax), measured maximum plasma concentration (Cmax), area under the plasma concentration-time curve from the time zero to the time of last quantifiable concentration (AUC0–t), area under the plasma concentration-time curve from time zero to infinity (AUC0–∞), area under the plasma (first) moment concentration-time curve from time zero to infinity (AUMC0–∞), mean residence time (MRT), volume of distribution (VD/F), and clearance (Cl/F) were determined by noncompartmental methods.
The nature of data set [3]: Plasmatic antioxidant capacity by FRAP after treatment. The data set is classed as in vivo, Sprague Dawley rats. To be noted: 90 min after oral 50 µg melatonin/kg. The procedure:
(§1) Phytochemicals and metabolites were isolated using SPE.
The plasma samples were also used to assess the reducing antioxidant potential using the FRAP assay, as previously described. Briefly, 300 μL of a working FRAP reagent [acetate buffer 0.3 M pH 3.6, 10 mM TPTZ in 40 mM HCl and 20 mM FeCl3·6H2O (10:1:1) (v/v/v)] were tempered to 37 °C, and then 10 μL of plasma samples were added. The absorbance was taken at 593 nm against reagent blank after 10 min. FRAP values were calculated and reported as µM Trolox equivalents (µM TE).

The nature of a further data set: in vivo. The note with it: Sprague Dawley, rat, plasma, po, 50 ug/kg.
Data set [4] in a line: Plasmatic antioxidant capacity by ORAC after treatment. In kind it is in vivo, Sprague Dawley rats. The note with it: 90 min after oral 50 µg synthetic melatonin/kg. The procedure:
as §1
The above plasma samples were used to determine the radical scavenging activity via the ORAC method using fluorescein as a fluorescence probe. The assay was performed at 37 °C in 75 mM phosphate buffer (pH 7.4). The reaction mixture (200 μL) contained fluorescein (70 nM), 2,2-azobis (2-methyl-propionamidine)-dihydrochloride (12 mM), and samples (Trolox or samples). Fluorescence was read at 485/520 nm, excitation/emission, respectively. Black 96-well untreated microplates (PS Balck, Porvair, Leatherhead, UK) were used. The fluorescence signal was measured every minute for 80 min after automatic shaking. All reaction mixtures were prepared in triplicate, running them at least three times independently. Fluorescence was normalized to the oxidation control (phosphate buffer) and stability control (no antioxidant). The ORAC values were expressed as mM Trolox equivalents (mM TE) according to the protocol previously described.

The nature of data set [5]: Bioavailability study: plasmatic melatonin 90 min after treatment (ELISA). The note with it: 90 min after oral 50 µg synthetic melatonin/kg.
Experimental: Each of the four groups (10 rats) was administered the treatment and sacrificed on a different day. […] The administration was performed through a gavage using a suitable intubation cannula. After that, the rats were individually caged, and a cling film was placed below the cage to obtain the urine samples. After 90 min of extract administration, all rat groups were anesthetized by CO2. Urine was collected from the cling film with a pipette and transferred to a vial. […] The blood was collected by cardiac puncture, transferred to vials containing 5% heparin, and centrifuged at 4 °C for 15 min at 2100 g. […] Phytochemicals and metabolites were isolated using SPE. First, plasma and urine samples were centrifuged at 15000 g for 4 min at 4 °C. Then, samples were filtered using C18 SPE cartridges (Waters, Cerdanyola del Vallès, Spain). Finally, the eluted obtained fractions were evaporated to dryness (Speed Vac SC 200, Savant Instruments, Farmingdale, NY, USA) and reconstituted before being assayed.
A short description of data set [6]: Plasma total phenolic compounds (Folin-Ciocalteu) after treatment. To be noted: 90 min posttreatment, 50 µg melatonin/kg. The data set is classed as in vivo, Sprague Dawley rats. The procedure: as §1
Samples (10 μL) were added to 150 μL of Folin-Ciocalteu reagent (diluted 1:15, v/v in Milli-Q water). After exactly 3 min, 20% Na2CO3 (50 μL) was added to each well. After 120 min at room temperature, the absorbance of the blue complex was measured at 760 nm using a microplate reader. The concentration of total phenolic compounds was expressed as mg GAE/mL.

For data set [7] the following is noted: cited from earlier work.
Setting [8] is: Sprague Dawley, rat, plasma, po, 50 ug/kg.
Where [9] appears, read: oral lentil sprouts, 50 µg melatonin/kg.

SMILES strings stand for the structures.

In general, half-life refers to how long it takes for the measured level to halve. A low value points to fast loss. A word on the CL/F: it is clearance divided by bioavailability, as obtained after extravascular dosing. For orientation: MRT inf means the average time that molecules of a dose stay in the body. The term Cmax denotes the peak of the concentration-time curve. The Tmax is the time at which the peak concentration occurs.

Text for in vivo: as §2

As for `COc1ccc2[nH]cc(CCNC(C)=O)c2c1` [melatonin, N-acetyl-5-methoxytryptamine], the “enhancement of plasmatic serotonin concentration in contrast to the Fasting group” value in data set [1] was determined as 2.7 fold. Moreover, in data set [2] (Sprague Dawley, rat, in vivo, po, 50 ug/kg), the half-life stood at 109 ± 13 min. In data set [2] (setting [8]), this molecule gave a CL/F of 5500 mL/min/kg, a half-life of about 100 min and a k el of 0.000108 s⁻¹. This molecule showed a mean residence time (MRT inf) in data set [2] (Sprague Dawley, rat, plasma, po, 50 ug/kg, MRT 0-∞, oral lentil sprouts, 50 µg melatonin/kg) of about 3.33 h. The “time of maximum plasma melatonin concentration postadministration” value in data set [2] (oral lentil sprouts extract, 50 µg melatonin/kg) stood at 1.5 h. Also, in data set [2] (setting [9]), the “AUC 0-t /dose” value was 131.2 ± 19.3 (pg/mL min)/(μg/kg), the “AUC 0-∞” value was determined as 9381 ± 2008 pg·min/mL, the “AUMC 0-∞” value amounted to 1897356 ± 589030 pg/mL min^2 and the Cl/F is 0.33 ± 0.07 (μg/kg)/(pg/mL)/h. For the same molecule, in data set [2] (setting [9]), the “MRT 0-∞” value is 199.4 ± 19.8 min, the VD/F is 0.85 ± 0.08 (μg/kg)/(pg/mL) and the “volume of distribution (VD/F)” value is reported as 0.85 L/g. Besides, the “AUC 0-t” value in data set [2] (oral lentil sprouts, 50 µg melatonin/kg, 0-240 min) is 6560 ± 963 pg·min/mL. The “increase of plasmatic antioxidant capacity (FRAP)” value in data set [3] is recorded as 4%. Besides, in “in vivo”, the Cmax came to 0.0454 ± 0.0035 ng/mL and the Tmax was 1.5 h. For the same molecule, the “increment of plasmatic antioxidant capacity (ORAC) vs the fasting group” value in data set [4] was 32%. The “plasmatic melatonin concentration lower than that of the Lentil Sprouts group” value in data set [5] was 22%. Further, the “change of TPC concentration in plasma” value in data set [6] is “nonsignificant”. Moreover, the “time of absorption in the gastrointestinal tract post-oral administration” value in data set [7] is reported as 45 min.

These data come from publication PMC7143261 (Foods, 2020).
